Measurements reported in US5635537A, “8-substituted-2-aminotetralins” (Astra Aktiebolag, priority 1989, dated 1997).
Where a name gives a salt, the structure may show the parent alone.

The molecules below were run against T1, 5HT1A (Rattus norvegicus, UniProt P19327) (assay: 5HT1A binding assay (receptor binding, 3H-8-OH-DPAT, rat cerebral cortex + hippocampus)). Conditions: 3H-8-OH-DPAT (0.25 to 8 nM), rat cerebral cortex + hippocampus homogenate, 37° C., 10 min, pH 7.5.
T1 construct: Cerebral cortex + hippocampus from each rat was dissected and homogenized; from tissue; host or cells: rat cerebral cortex + hippocampus homogenate
T1 sequence (P19327 1-422): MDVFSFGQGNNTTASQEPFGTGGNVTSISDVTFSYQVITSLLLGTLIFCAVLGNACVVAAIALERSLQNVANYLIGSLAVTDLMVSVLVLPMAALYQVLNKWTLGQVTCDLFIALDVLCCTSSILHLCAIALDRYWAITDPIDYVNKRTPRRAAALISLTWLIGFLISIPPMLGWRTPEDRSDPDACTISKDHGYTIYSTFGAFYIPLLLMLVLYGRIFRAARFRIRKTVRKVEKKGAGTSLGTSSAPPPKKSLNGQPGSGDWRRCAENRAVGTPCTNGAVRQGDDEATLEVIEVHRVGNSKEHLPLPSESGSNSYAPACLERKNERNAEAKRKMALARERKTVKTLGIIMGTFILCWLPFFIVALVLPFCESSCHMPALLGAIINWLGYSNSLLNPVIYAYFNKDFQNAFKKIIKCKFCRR
Method: Another observation is that some of these compounds have a particularly good oral bioavailability. In order to evaluate the affinity for this subgroup of/the 5-HT-receptors, the effects on various receptors in rat brain were measured in vitro using receptor assays (Ki nM).
5HT1A binding assay. Cerebral cortex + hippocampus from each rat was dissected and homogenized in 15 ml ice-cold 50 mM Tris-HCl buffer 4.0 mM CaCl2 and 5.7 mM ascorbic acid, pH 7.5 with an Ultra-Turrax (Janke & Kunkel, Staufen, FRG) for ten s. After centrifugation for 12.5 min at 17,000 rpm (39,800×g in a Beckman centrifuge with a chilled JA-17 rotor (Beckman, Palo Alto, Calif., USA), the pellets were resuspended in the same buffer and homogenization and centrifugation repeated. To each pellet 5 ml ice-cold 0.32M sucrose were added and homogenized for 5 sec. These samples were kept frozen at -70° C. When used they were diluted with the buffer to 8 mg tissue/ml and homogenized for 10 sec.
The tissue homogenates were incubated for ten min at 37° C. and then supplied with 10 μM pargyline followed by reincubation for 10 min.
The binding assay followed that described by Peroutka, J. Neurochem. 47, 529-540, (1986). The incubation mixture (2 ml) contained ^3 H-8-OH-DPAT (0.25 to 8 nM), 5 mg/ml tissue homogenate in 50 mM Tris-HCl buffer containing 4.0 mM CaCl2 and 5.7 mM ascorbic acid, pH 7.5. Six different concentrations of ^3 H-8-OH-DPAT were analyzed. Binding experiments were started by the addition of tissue homogenate and followed by incubation at 37° C. for ten min. The incubation mixtures were filtered through Whatman GF/B glass filters with a Brandel Cell Harvester (Gaithersburg, Md., USA). The filters were washed twice with 5 ml ice-cold 50 mM Tria-HCl buffer, pH 7.5, and counted with 5 ml Ready-solv HP (Beckman) in a Beckman LS 3801 scintillation counter. Non-specific binding was measured by the addition of 10 μM 5-HT to the reaction mixture. The binding data was processed by non-linear least squares computer/analysis (Munson and Rodbard, Anal. Biochem. 107, 220-239, (1980).

Compared with CCCN(CCC)C1CCc2cccc(C(C)=O)c2C1 (racemic) [Example 2, (±)-8-Acetyl-2-(dipropylamino)tetralin hydrochloride], CCCN(CCC)C1CCc2cccc(-c3ccco3)c2C1 (racemic) [Example 11, (±)-8-(2-Furanyl)-2-(dipropylamino)tetralin oxalate] is 1.7-fold higher in Ki: 0.9 nM for the first, 1.5 nM for the second. The first binds more tightly here.

Work on CCCN(CCC)C1CCc2cccc(C(C)=O)c2C1 (single isomer, unassigned; (+)) [Example 6, (+)-8-Acetyl-2-(dipropylamino)tetralin hydrochloride] yielded a Ki of 1.7 nM.
